# Reference: publication PMC10454375, “Cell-Impermeable Inhibitors Confirm That Intracellular Human Transglutaminase 2 Is Responsible for the Transglutaminase-Associated Cancer Phenotype” (International Journal of Molecular Sciences, 2023)
# Peptide text beside a SMILES is read from it. * marks the point of attachment. X1 = C=CC(=O)NCCCCC(NC(=O)OCc1ccccc1)C(=O)N1CCN(C(=O)C(CCC(=O)*)NC(=O)c2cccc3ccccc23)CC1
# Assays:
# TG3a = target: T1, TG3a (Homo sapiens, UniProt Q08188); test: TGase isozyme selectivity, TG3a with A101 substrate; assay type: biochemical; settings: [I]/α identical to that of the TG2 assay
# T1 construct: purchased Zedira GmbH (Darmstadt, Germany)
# T1 sequence (Q08188 2-467 limits assumed): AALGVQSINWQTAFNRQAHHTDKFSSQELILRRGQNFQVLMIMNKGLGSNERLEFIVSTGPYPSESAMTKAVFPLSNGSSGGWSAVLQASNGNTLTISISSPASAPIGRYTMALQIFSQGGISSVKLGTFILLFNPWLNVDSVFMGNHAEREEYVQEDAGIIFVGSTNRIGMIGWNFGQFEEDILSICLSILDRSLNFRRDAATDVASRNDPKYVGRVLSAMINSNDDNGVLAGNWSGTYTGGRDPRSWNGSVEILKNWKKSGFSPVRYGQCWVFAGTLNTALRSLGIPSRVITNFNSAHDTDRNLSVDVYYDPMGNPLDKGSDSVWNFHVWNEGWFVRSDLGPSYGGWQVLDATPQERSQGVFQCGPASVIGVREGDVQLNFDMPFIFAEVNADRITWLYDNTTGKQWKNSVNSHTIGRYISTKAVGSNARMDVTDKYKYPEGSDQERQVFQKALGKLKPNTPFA
# T1 sequence (Q08188 468-693 partner limits assumed): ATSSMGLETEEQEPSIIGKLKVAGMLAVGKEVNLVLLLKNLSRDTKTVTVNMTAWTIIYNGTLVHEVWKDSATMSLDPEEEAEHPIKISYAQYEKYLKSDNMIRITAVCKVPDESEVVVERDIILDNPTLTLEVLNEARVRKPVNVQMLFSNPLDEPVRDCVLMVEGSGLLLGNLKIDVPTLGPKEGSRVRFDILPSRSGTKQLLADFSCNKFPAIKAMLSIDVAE
# Source text: (§1) In the development of probes for TGases, isozyme selectivity is always a significant challenge. Since the catalytic machinery of the active sites of all TGases features a conserved Gly-Gln-Cys-Trp-Val sequence, selectivity for one isozyme over the others requires exploitation of slight differences in the protein substrate binding sites. In order to assess the isozyme selectivity of our cell-impermeable inhibitors, TG2 and four other therapeutically relevant TGases (Factor XIII, TG1, TG3, and TG6) were exposed to a concentration of inhibitor representing the same apparent competition with respect to the assay substrate (AL5 [38] or A101 [42, 43]). In other words, both the substrate and inhibitor concentrations were varied so that the [I]/α values were identical. […] This provides confidence that in further applications, these cell-impermeable inhibitors will selectively target TG2 over other transglutaminases.
# (§2) To monitor the activity of TG3a and TG6, a FRET-quenched substrate A101 (Zedira Gmbh) was used. […] The isopeptidase activity of the respective TGase was then monitored at Ex/Em = 313/418 nm with a BioTek Synergy 4 plate reader at 25 °C. […]
# FXIIIa = target: T2, FXIIIa (Homo sapiens, UniProt P00488); test: TGase isozyme selectivity, FXIIIa with A101 substrate; assay type: biochemical; settings: [I]/α identical to that of the TG2 assay
# T2 construct: purchased Zedira GmbH (Darmstadt, Germany)
# T2 sequence (P00488 39-732 limits assumed): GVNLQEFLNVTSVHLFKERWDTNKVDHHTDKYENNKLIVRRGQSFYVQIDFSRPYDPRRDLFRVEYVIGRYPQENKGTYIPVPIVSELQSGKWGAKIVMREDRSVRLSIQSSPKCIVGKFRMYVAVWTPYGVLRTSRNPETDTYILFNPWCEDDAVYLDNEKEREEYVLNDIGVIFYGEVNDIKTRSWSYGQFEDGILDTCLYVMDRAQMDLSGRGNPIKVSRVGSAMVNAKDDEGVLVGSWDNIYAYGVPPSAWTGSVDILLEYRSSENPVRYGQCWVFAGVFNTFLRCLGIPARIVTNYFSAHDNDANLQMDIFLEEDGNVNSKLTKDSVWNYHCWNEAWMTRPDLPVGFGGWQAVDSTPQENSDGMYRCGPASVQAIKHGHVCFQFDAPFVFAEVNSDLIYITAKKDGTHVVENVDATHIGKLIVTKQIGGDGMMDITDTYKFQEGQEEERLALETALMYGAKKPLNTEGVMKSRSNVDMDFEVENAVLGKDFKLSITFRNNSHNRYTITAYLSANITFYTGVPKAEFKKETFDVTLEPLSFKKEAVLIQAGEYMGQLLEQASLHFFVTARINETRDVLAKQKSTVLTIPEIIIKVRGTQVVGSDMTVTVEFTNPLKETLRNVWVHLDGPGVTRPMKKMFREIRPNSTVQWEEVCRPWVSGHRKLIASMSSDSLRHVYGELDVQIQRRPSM
# Source text: as §1, §2
# Log D = assay type: physicochemical
# Source text: Table 2 Representative pharmacokinetic properties for cell-impermeable inhibitors 17 and 18. | column: 17; 18 (NCEG2)
SMILES,inhibition of TG3 (TG3a),inhibition of Factor XIII (FXIIIa),logD (Log D)
C=CC(=O)NCCCCC(NC(=O)OCc1ccccc1)C(=O)N1CCN(C(=O)C(CCC(=O)NCCCCCC(=O)NC(CC(=O)O)C(=O)NC(CC(=O)O)C(=O)NC(CC(=O)O)C(=O)O)NC(=O)c2cccc3ccccc23)CC1 (stereo not drawn) [Compound 17],no detectable inhibition,no detectable inhibition,< -2.73
C=CC(=O)NCCCCC(NC(=O)OCc1ccccc1)C(=O)N1CCN(C(=O)C(CCC(=O)NCC(=O)NCC(=O)NCC(=O)NC(CC(=O)O)C(=O)NC(CC(=O)O)C(=O)NC(CC(=O)O)C(=O)O)NC(=O)c2cccc3ccccc23)CC1 (stereo not drawn) [Compound 18] (X1-GGGDDD-OH; configuration not given here),no detectable inhibition,no detectable inhibition,< -2.63
